Measured values published in PubChem BioAssay AID1159562 (GlaxoSmithKline (GSK), 2015).
The source made the active and inactive calls. No rule for the calls is given here.

System: Trypanosoma brucei growth inhibition, luminescence
Assay: Trypanosoma brucei growth inhibition, luminescence (AID 1159562);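 also: parasites grew with compound for 24 h before the luminescence read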

IC50 | SMILES
130 nM | O=C1NCc2cccc(Nc3nc(NC4CCC(O)CC4)ncc3Br)c21 (configuration not stated)
10000 nM | Oc1cccnc1-c1n[nH]c(Cc2ccccc2)n1
25000 nM | CN(C)CCOc1ccc(N2CCN(S(=O)(=O)c3ccc(Cl)cc3)CC2)cc1
> 40000 nM (inactive) | O=C(NCc1ccc(-n2cccc2)cc1)c1nc(Cn2ccc([N+](=O)[O-])n2)no1
790 nM | C[C@@H](Oc1cc(-n2cnc3ccc(O[C@H]4CCNC4)cc32)sc1C(N)=O)c1ccccc1Cl
> 40000 nM (inactive) | Cc1ccc(C)c(OC2CCN(C(=O)C(C)n3ccnc3)CC2)c1 (configuration not stated)
25000 nM | Fc1ccc(Nc2nc(-c3ccccn3)cs2)cc1
2000 nM | CCOc1ccc(CN(C)Cc2nc(N)nc(Nc3ccc(C)cc3)n2)cc1
500 nM | CCCCn1c(=O)c2c(N)onc2n(CCCC)c1=O
6300 nM | CC(C)(C)Nc1nc(-c2ccccn2)nc2ccccc12
> 40000 nM (inactive) | CS(=O)(=O)NC1CCC(Oc2cc3cnccc3cc2-c2ccsc2)CC1 (configuration not stated)
250 nM | O=C(Cc1ccccc1)Nc1ccccc1C(=O)Nc1nccs1
> 40000 nM (inactive) | O=C1CSC(c2cccnc2)N1c1ccc(Cl)cc1Cl (configuration not stated)
250 nM | N#Cc1cnc(Nc2cccc(CCN3CCOCC3)c2)nc1Nc1ccccc1C(N)=O
13000 nM | CC(c1ccc2c(c1)CCCC2)N(C)c1ncc2c(N)nc(N)nc2n1 (configuration not stated)
790 nM | COc1ccc(C(=O)Nc2c(C)nn(COc3cccc(C(F)(F)F)c3)c2C)cc1
1600 nM | Cc1ccc(S(C)(=O)=O)cc1Nc1nccc(-c2sc(N)nc2-c2ccccc2)n1
630 nM | Cc1[nH]n2c(=O)c3c(nc2c1-c1ccc(F)cc1)CCCC3
2000 nM | CC(=O)Nc1ccc(-c2cnc(N)c(-c3nc4ccc(F)cc4[nH]3)c2)cc1
790 nM | CC(C)(C)C(=O)NCCc1csc(-c2ccc(F)cc2)n1
1600 nM | Cn1ccnc1-c1nc(NCc2ccccc2Cl)cc(C2CC2)n1
> 40000 nM (inactive) | COc1ccccc1-c1c(C)[nH]c2nc(N)nc(C)c12
5000 nM | CCN(CC)c1nc(Nc2ccncc2)nc2ccccc12
100 nM | COc1cnc2ccc(=O)n(CCN3CCC(NC(=O)c4ccc(Cl)cc4)CC3)c2c1
630 nM | O=C(Nc1nc(-c2ccccn2)cs1)c1ccccc1-n1cnnn1
> 40000 nM (inactive) | O=S(=O)(c1cccc(CSc2nnc(-c3ccc4c(c3)OCO4)o2)c1)N1CCOCC1

IC50 | SMILES
> 40000 nM (inactive) | CC(Cn1ccnc1)NC(=O)COc1ccc(Cl)c(Cl)c1 (configuration not stated)
13000 nM | CC(C)Nc1nc(Cl)nc2ccccc12
160 nM | CC(=O)Nc1ccc(-c2csc(NC(=O)c3ccc([N+](=O)[O-])s3)n2)cc1
630 nM | O=C(NCCc1csc(-c2cccc(F)c2)n1)c1ccco1
40000 nM | CN(C)Cc1ccc(-c2ccc(S(=O)(=O)NCC3CCCO3)c(F)c2)cc1 (configuration not stated)
500 nM | O=[N+]([O-])c1ccc(-c2nnn(-c3cccnc3)n2)o1
> 40000 nM (inactive) | CC(C)(C)C(Cn1ccnc1)NC(=O)c1ccc2nc(C3CC3)oc2c1 (configuration not stated)
25000 nM | O=C(CN1CCN(c2ccccn2)CC1)Nc1cc(S(=O)(=O)N2CCCCCC2)ccc1Cl
> 40000 nM (inactive) | O=C(C1CCCCC1)N1CCN(c2nnc(-c3ccccc3)c3ccccc23)CC1
40000 nM | O=C(Nc1ncc([N+](=O)[O-])s1)C1CC1
> 40000 nM (inactive) | Cc1cccc(NS(=O)(=O)c2cnc3sc(C)cn3c2=O)c1
16 nM | CS(=O)(=O)N1CCC(Nc2ncc(Br)c(Nc3cccc(F)c3C(N)=O)n2)CC1
25000 nM | Cc1nc2c(-c3nc(-c4ccc(N)cc4)n[nH]3)cccn2c1C
630 nM | COc1ccc(S(=O)(=O)Nc2ccc(C(=O)Nc3nc(-c4ccccn4)cs3)cc2)cc1
63 nM | COc1cc(OC)cc(C(=O)N[C@@H](CC(C)C)C(=O)NC2(C#N)CC2)c1
25000 nM | CN(Cc1cccnc1)Cc1ccc(N2CCN(C(=O)C3(c4ccc(Cl)cc4)CC3)CC2)nc1
200 nM | CCc1c(C)nc(-n2nc(C)cc2NC(=O)COc2ccccc2F)[nH]c1=O
> 40000 nM (inactive) | O=S(=O)(NCC(c1cccnc1)N1CCN(c2ccc(F)cc2)CC1)c1cccs1 (configuration not stated)
> 40000 nM (inactive) | Cc1c([N+](=O)[O-])c(C(=O)Nc2sc3c(c2C#N)CCC(C)C3)nn1C (configuration not stated)
20000 nM | COc1cccc(C(=O)[C@H]2C[C@@H]2CN(Cc2ccccn2)Cc2ccccn2)c1
790 nM | Cc1cccnc1NC(=O)c1cccc(OCc2c(C)noc2C)c1
400 nM | CC(=O)Nc1cccc(Nc2ncnc3nc[nH]c23)c1
790 nM | COc1ccc(-c2csc(NC(=O)c3ccc([N+](=O)[O-])s3)n2)cc1
630 nM | CCN(CC)S(=O)(=O)c1ccc(OC)c(NC(=O)c2ccc([N+](=O)[O-])s2)c1
> 50000 nM (inactive) | O=C1CN(C(=O)c2cccc(Nc3ncc(-c4ccc5c(c4)OCO5)cn3)c2)CCN1
> 40000 nM (inactive) | Cc1c(C(C)NC(=O)Nc2cccc(Cl)c2)sc2ncnn12 (configuration not stated)

IC50 | SMILES
790 nM | CC(=O)Nc1ccc(-c2ccnc(Nc3cccc(C#N)c3)n2)cc1
13000 nM | O=C(Nc1ccc(Br)c(Cl)c1)Nc1ccc2c(c1)OCO2
20000 nM | CC(CNS(=O)(=O)c1ccc(OC(F)F)cc1)c1ccc(NC(=O)c2ccncc2)cc1 (configuration not stated)
> 40000 nM (inactive) | CS(=O)(=O)c1cccc(CNC(=O)c2cncc(N3CCN(c4ccc(F)cc4)CC3)c2)c1
130 nM | Cc1cc2nc(N3CC[C@H]3C(N)=O)nc(Nc3cc(C4CC4)[nH]n3)c2s1
200 nM | CC(=O)NCCNc1cc(-c2ccnc(Nc3cccc(Cl)c3)n2)ccn1
1600 nM | COc1ccc2ncc(F)c(NC(=O)C3(O)CCC(NCc4ccc5c(c4)OCCO5)CC3)c2n1 (configuration not stated)
> 40000 nM (inactive) | Cn1nc([N+](=O)[O-])nc1Oc1ccc(C(=O)c2ccccc2)cc1
> 40000 nM (inactive) | O=C(NCCc1cccnc1)c1ccc(-c2ccccc2F)o1
500 nM | COc1cnc2ccc(=O)n(CCN3CCC(NC(=O)Cc4ccc(Cl)c(Cl)c4)CC3)c2c1
250 nM | Cc1ccc(NC(=O)c2ccnc(N3CCCC3)c2)cc1-c1cc(C(N)=O)ccc1C
630 nM | NC(=O)c1ncccc1Nc1nc(NC2CCC(O)CC2)ncc1Br (configuration not stated)
1600 nM | c1ccc2sc(Nc3nc4ncccc4[nH]3)nc2c1
> 40000 nM (inactive) | CN(C)c1ncc(-c2cncn2CCOc2ccc(Cl)cc2)cn1
13000 nM | O=C(CCCNC(=O)c1ccc(Cl)cc1)Nc1nc(-c2ccccn2)cs1
500 nM | CCc1ccccc1[C@@H](C)NC(=O)c1cnc2c(cnn2CC)c1NC1CCN(C(N)=O)CC1
100 nM | CC(C)c1cc(Nc2cc(Cc3ccccc3)nc(NC3CCC(O)CC3)n2)n[nH]1 (configuration not stated)
> 40000 nM (inactive) | Cn1c(CN2CCN(c3ncc(C(F)(F)F)cc3Cl)CC2)nc2ccncc21
2500 nM | COc1ccc2ncc(=O)n(CCN3CCOC(CNCc4ccc(C(F)(F)F)cc4F)C3)c2n1 (configuration not stated)
6300 nM | O=C(NC(c1ccc(Cl)cc1)c1cnccn1)C1CCN(C(=O)Nc2cccc(C(F)(F)F)c2)CC1 (configuration not stated)
> 40000 nM (inactive) | OCCCNc1nc(Nc2ccncc2)nc2ccccc12
> 40000 nM (inactive) | Cc1ccc2c(c1)-c1onc(C(=O)N3CCCCC3c3cccnc3)c1CO2 (configuration not stated)
> 40000 nM (inactive) | CN(Cc1nc2ccccc2s1)C(=O)C=Cc1cc2ccccc2o1
13000 nM | CCNc1cc(-c2ccccn2)nc(Nc2ccccc2)n1
25000 nM | Cc1c(C#N)c([N+](=O)[O-])nn1Cc1cccc(Cl)c1Cl
500 nM | O=C(NCCc1csc(-c2ccc(F)cc2)n1)c1ccco1

IC50 | SMILES
> 40000 nM (inactive) | O=C(CCCn1cnc([N+](=O)[O-])n1)Nc1cccc(Cl)c1
> 40000 nM (inactive) | Cc1nccn1C1CCCN(C(=O)c2cc3c(F)cccc3s2)C1 (configuration not stated)
20000 nM | CCN(CC)c1nc(N(C)C)nc2c1CN(Cc1ccccc1)CC2
> 40000 nM (inactive) | FC(F)(F)c1cc(C2CCCN(Cc3c[nH]c4ccccc34)C2)nc2ncnn12 (configuration not stated)
> 40000 nM (inactive) | CC1=NN(C(=O)CCn2cnc([N+](=O)[O-])n2)C(O)(C(F)(F)F)C1 (configuration not stated)
20 nM | O=c1cc(NCCCNC2CCOc3c(I)cc(Cl)cc32)[nH]c2ccccc12 (configuration not stated)
1000 nM | O=C(NCCc1nc(-c2ccc(F)c(F)c2)n[nH]1)C1CCCCC1
> 40000 nM (inactive) | CNc1cncc(C2CCCN2C(=O)Cc2ccc3ccccc3c2)n1 (configuration not stated)
6300 nM | Cn1c(CC(=O)NNC(=O)c2ccc3ccccc3n2)nc2ccccc21
6300 nM | Cc1nn(-c2nc(N)nc(-c3ccccn3)n2)c(C)c1Cc1ccccc1
> 40000 nM (inactive) | O=C(c1cccc(Nc2ncc(-c3ccc4c(c3)OCO4)cn2)c1)N1CCSC1
> 40000 nM (inactive) | CN(Cc1ccccc1)Cc1nnnn1C1CCN(Cc2ccc(-n3ccnc3)cc2)CC1
4000 nM | Cc1cc(C#N)c([N+](=O)[O-])cc1Br
500 nM | CN1C(=O)c2ccccc2Sc2ccc(NC(=O)NCc3ccco3)cc21
> 50000 nM (inactive) | O=C(c1cccc(Nc2ncc(-c3ccc4c(c3)OCO4)cn2)c1)N1CCOCC1
20000 nM | Clc1cc(Br)ccc1OCCCCn1ccnc1
1000 nM | O=C(Cn1cnc2c(-c3ccccc3)csc2c1=O)N1CCCCC1
20000 nM | CC(C)COC(=O)Nc1ccc(N2CCC(CNS(=O)(=O)c3ccccc3)CC2)c(F)c1
> 40000 nM (inactive) | Cc1ccccc1OCC(=O)N1CCCN(c2cccnn2)CC1
630 nM | CS(=O)(=O)c1ccccc1C(=O)N(Cc1ccccc1)c1ccccc1
32000 nM | O=C(c1cccc(Cl)c1Cl)N1CCn2c1nc(-c1ccncc1)cc2=O
1000 nM | Cc1ccc(C)c(CN2C(=O)NC3(CCc4ccccc43)C2=O)c1 (configuration not stated)
250 nM | O=C(NCCCn1cnc2ccccc21)c1ccc(NC(=O)c2ccco2)cc1
20000 nM | COc1ccc(CN(C)Cc2ccncc2)cc1-c1ccc(S(=O)(=O)NC2CCC2)s1

SMILES | IC50
O=[N+]([O-])c1ccc(C2=CC(c3ccccc3)=NCCN2)cc1 | > 13000 nM (inactive)
CC(C)(C)C(O)(CCc1ccc(Cl)cc1)Cn1cncn1 (configuration not stated) | > 40000 nM (inactive)
Cc1nn(-c2nc3ccccc3s2)c2c1C(c1ccc(OCC(N)=O)cc1)SCC(=O)N2 (configuration not stated) | 32 nM
CCN(CC)S(=O)(=O)c1ccc(Cn2nc(C(=O)Nc3ccncn3)c3ccccc32)cc1 | > 40000 nM (inactive)
Cc1[nH]nc2c1C(c1ccc(OCc3ccccc3F)cc1)SCC(=O)N2 (configuration not stated) | > 40000 nM (inactive)
